{"source": "patent US20260325504A1", "about": "“Genetically Engineered Human Pituitary Corticotroph Tumor Organoids Exhibit Divergent Responses to Selective Glucocorticoid Receptor Modulators” (Corcept Therapeutics Incorporated, priority 2022, published 2026)", "type_in_all_cases": "cell-based, human", "key": {"SSTR2": {"system": "SSTR2", "assay": "Differential expression of SSTR2 (qRT-PCR) in iPSC generated pituitary organoids", "settings": "for SSTR2 induction relative to SSTR5: PitNET organoids, summary; for induction in SSTR2 expression, mifepristone compared to relacorilant / expression of SSTR2: iPSC organoids; for induction in SSTR2 expression, mifepristone compared to relacorilant: 500 nM each, FIG. 5A; for expression of SSTR2: 500 nM, vs vehicle", "procedure": "(§1) Sonic Hedgehog (SHH) was withdrawn from the organoid growth media 16 hours prior to treatment. The experimental treatment groups included: vehicle (Veh), mifepristone (500 nM, Selleckchem S2606), GANT61 (5 μM, Stemcell Technologies 73692), ketoconazole (Keto, 10 μM, Selleckchem S1353), pasireotide (Pas, 100 nM, Target Mol TP2207-SB001), octreotide (Oct, 100 nM, Selleckchem P1017), mifepristone plus GANT61, mifepristone plus Keto, mifepristone plus Pas, relacorilant (500 nM, Corcept Therapeutics CORT125134), relacorilant plus Pas, relacorilant plus Oct, or dexamethasone (Dexa, 100 nM, SIGMA S4902). In the combination treatments, cultures were pretreated with the GANT61, Keto, Pas or Oct for 2 hours prior to treatment with mifepristone or Rela. PitNET tissue derived organoids hPITO36, hPITO37, hPITO38, hPITO39, and hPITO40 were treated with the following experimental conditions: Vehicle (1), pasireotide (2), relacorilant (3), relacorilant & pasireotide (4), mifepristone (5), mifepristone & pasireotide (6). The IC50 values used for each hPITO line for each drug were determined based on dose responses (FIG. 12). All organoid cultures were treated for 48 hours prior to analysis.\n(§2) RNA was extracted from PitNET tissue or iPSC generated organoids using TRI Reagent® (Molecular Research Center Inc TR118) and the High Capacity cDNA Reverse Transcription Kit (Applied Biosystems, Foster City, CA) was used for cDNA synthesis of RNA following the recommended protocol. For each sample, 60 ng RNA was reverse transcribed to yield approximately […] total cDNA that was then used for the qRT-PCR. Pre-designed real-time polymerase chain reaction assays were purchased for the following genes: TPit (Thermo Fisher Scientific 4331182 Hs00193027), SF1 (Thermo Fisher Scientific 4331182 Hs00610436), SSTR2 (Thermo Fisher Scientific 4331182 Hs00265624_s1), SSTR5 (Thermo Fisher Scientific 4331182 Hs00990407_s1), POMC (Thermo Fisher Scientific 4331182 Hs01596743_ml), hPRT (Thermo Fisher Scientific 4331182 Hs02800695_ml), and FKBP5 (Thermo Fisher Scientific 4331182 Hs01561006_m1). Polymerase chain reaction amplifications were performed in a total volume of 20 μL containing 20× TaqMan Expression Assay primers, 2× TaqMan Universal Master Mix (Applied Biosystems, TaqMan® Gene Expression Systems), and cDNA template. Each polymerase chain reaction amplification was performed in triplicate wells in a StepOne Real-Time PCR System (Applied Biosystems) by using the following conditions: 500C 2 minutes, 95° C. 10 minutes, 95° C. 15 seconds (denature) and 60° C. 1 minute (anneal/extend) for 40 cycles. Fold change was calculated as the following: (Ct-Ct high)=n target, 2ntarget/2nHPRT=fold change where Ct=threshold cycle. The results were expressed as average fold change in or differential gene expression relative to control, with HPRT used as an internal control according to Livak and Schmittgen."}, "SSTR5": {"system": "SSTR5", "assay": "Differential expression of SSTR5 (qRT-PCR) in iPSC generated pituitary organoids", "settings": "for expression of SSTR5: 500 nM, vs vehicle; for SSTR5 induction relative to SSTR2: PitNET organoids, summary", "procedure": "as §1, §2"}, "iPSC^ctrl organoids": {"system": "iPSC^ctrl organoids", "assay": "EdU uptake (proliferation) in iPSCctrl organoids", "settings": "compound alone, 500 nM, 48 h", "procedure": "iPSCs were stained for pituitary specific hormones including luteinizing hormone (LH), follicle-stimulating hormone (FSH), growth hormone (GH), prolactin (PRL), ACTH, cytokeratin 8/18 (CAM5.2), pituitary transcription factor PIT-1 and neuroendocrine marker Synaptophysin (Table 5). Cultures were immunostained for proliferation marker EdU (Click-IT EdU Alexa Fluor 555 Imaging Kit, Thermo Fisher Scientific C10338). Antibody dilutions were determined based on manufacturer guidelines and antibody titration (Table 5). Staining was conducted according to previously published protocols. Briefly, organoids and iPSCs grown in 8-well glass bottom chamber slides were fixed using 3.7% formaldehyde, washed with DPBS, permeabilized with 0.5% Triton X-100 (SIGMA X-100, PBS-T, 20 min at room temperature), washed with 0.01% PBS-T, and blocked with 2% donkey serum (Jackson Immuno Research 017-000-121) for 1 hour at room temperature. After blocking, primary antibodies were added and incubated overnight at 4° C. Slides were washed with 0.01% PBS-T and incubated with secondary antibodies (Table 5) with Hoechst (Thermo Fisher Scientific H1399) for 1 hour at room temperature. Organoids were washed and stored in PBS at 4° C. until microscopic analysis. High content confocal microscopy was performed using the Nikon Ti2-E Inverted Microscope (with a Crest X-Light V2 L-FOV Spinning Disk Confocal) at the University of Arizona Cancer Center, or a ZEISS LSM880 34 channel Laser Scanning Confocal Microscope at University of Arizona Marley Imaging Core. Fluorescence intensity was quantified as the percentage of marker-positive cells versus total cells, using Nikon Elements Software (Version 5.21.05). Proliferation for each iPSC line was quantified as the percentage of EdU-positive cells versus total cells.\nas §1, with “PitNET tissue derived organoids hPITO36, hPITO37, hPITO38, hPITO39, and hPITO40 were treated with the following experimental conditions: Vehicle (1), pasireotide (2), relacorilant (3), relacorilant & pasireotide (4), mifepristone (5), mifepristone & pasireotide (6).” left out, “All organoid cultures were treated for 48 hours prior to analysis.” left out"}, "ACTH": {"system": "ACTH", "assay": "Spectral flow cytometry, ACTH positive cells, iPSCUSP48MV organoids", "settings": "48 h, FIGS. 8C, G", "procedure": "as §1\nThe multicolor flow cytometry antibody panel was designed using the Cytek® Full Spectrum Viewer online tool to calculate the similarity index. Organoids were harvested in cold Serum-Free Defined Medium media and incubated with Zombie (BioLegend 423107, 1:100) for 15 minutes in the dark at room temperature, followed by incubation with fluorochrome-conjugated/unconjugated primary surface or cytoplasmic antibodies (Table 6) at 4° C. for 30 minutes. Cells were then washed with Cell Staining Buffer (BioLegend 420-201) and incubated at 4° C. for 30 minutes with secondary antibodies (Table 6). Cells were fixed using Cytofix/Cytoperm™ Fixation/Permeabilization Solution (BD Biosciences 554714) and washed with Fixation/Permeabilization wash buffer according to the recommended protocol. […] Data was acquired using the Cytek® Aurora, analyzed using Cytobank Premium software (Beckman Coulter)."}, "[1]": {"settings": "iPSCctrl organoids, compound alone, 48 h, FIG. 5C, D"}}, "note": "Entries after “also recorded” stand apart in the source; their conditions may differ.", "data": [{"smiles": "CC#C[C@]1(O)CC[C@H]2[C@@H]3CCC4=CC(=O)CCC4=C3[C@@H](c3ccc(N(C)C)cc3)C[C@@]21C", "note": "[mifepristone, 11β-(4-dimethylaminophenyl)-17ß-hydroxy-17α-(1-propynyl)-estra-4,9-dien-3-one]", "values": [{"measurement": "SSTR2 induction relative to SSTR5", "setting": "SSTR2", "value": "predominantly induced SSTR2 expression; also recorded: significantly greater induction in SSTR2 than SSTR5"}, {"measurement": "SSTR2 induction relative to SSTR5", "setting": "SSTR2; listed as Mifepristone", "value": "induces SSTR2 with greater magnitude compared to SSTR5"}, {"measurement": "induction in SSTR2 expression, mifepristone compared to relacorilant", "setting": "SSTR2; 48 h", "value": "preferentially induced the expression of SSTR2"}, {"measurement": "induction in SSTR2 expression, mifepristone compared to relacorilant", "setting": "SSTR2; 48 h, listed as Mifepristone", "value": "significantly greater induction in SSTR2 expression when compared to relacorilant"}, {"measurement": "expression of SSTR2", "setting": "SSTR2; 48 h", "value": "significant induction; also recorded: significantly induced the expression"}, {"measurement": "differential expression of SSTR2", "setting": "SSTR2; [1]", "value": "significantly induced"}, {"measurement": "expression of SSTR5", "setting": "SSTR5; iPSC organoids, 48 h", "value": "significant induction; also recorded: significantly induced the expression"}, {"measurement": "differential expression of SSTR5", "setting": "SSTR5; [1]", "value": "significantly induced"}, {"measurement": "proliferation (EdU uptake)", "setting": "iPSC^ctrl organoids", "value": "significant increase in cell proliferation"}, {"measurement": "ACTH positive cells / ACTH expression", "setting": "ACTH", "value": "significant induction in the number of ACTH positive cells; also recorded: significantly increased the ACTH expression levels"}]}, {"smiles": "Cn1cc(S(=O)(=O)N2CCC3=Cc4c(cnn4-c4ccc(F)cc4)C[C@]3(C(=O)c3cc(C(F)(F)F)ccn3)C2)cn1", "note": "[relacorilant, (R)-(1-(4-fluorophenyl)-6-((1-methyl-1H-pyrazol-4-yl)sulfonyl)-4,4a,5,6,7,8-hexahydro-1H-pyrazolo[3,4-g]isoquinolin-4a-yl) (4-(trifluoromethyl)pyridin-2-yl) methanone]", "values": [{"measurement": "expression of SSTR2", "setting": "SSTR2; 48 h", "value": "significant induction; also recorded: significantly induced the expression"}, {"measurement": "SSTR5 induction relative to SSTR2", "setting": "SSTR5", "value": "predominantly induced SSTR5 expression; also recorded: greater induction of SSTR5 expression as compared to SSTR2"}, {"measurement": "SSTR5 induction relative to SSTR2", "setting": "SSTR5; listed as Relacorilant", "value": "predominantly induces SSTR5"}, {"measurement": "induction in SSTR5 expression, relacorilant compared to mifepristone", "setting": "SSTR5; iPSC organoids, 500 nM each, 48 h, FIG. 5B", "value": "induced greater SSTR5 expression"}, {"measurement": "expression of SSTR5", "setting": "SSTR5; iPSC organoids, 48 h", "value": "significant induction; also recorded: significantly induced the expression"}, {"measurement": "proliferation (EdU uptake)", "setting": "iPSC^ctrl organoids", "value": "did not induce organoid proliferation"}, {"measurement": "ACTH positive cells / ACTH expression", "setting": "ACTH", "value": "did not significantly increase the number of ACTH-positive cells"}, {"measurement": "ACTH positive cells / ACTH expression", "setting": "ACTH; listed as Relacorilant", "value": "did not significantly increase ACTH"}]}]}
